Reference: patent US20220380329A1, “A HYPERBRANCHED POLYGLYCEROL POLYGLYCIDYL ETHER AND ITS USE AS CROSSLINKER FOR POLYSACCHARIDES” (BIOPOLIMERI S.R.L., priority 2019, published 2022)

Test system: 3T3 mouse fibroblasts
Assay: MTT viability assay, cells grown in direct contact with the crosslinker
Type: cell-based
Details: direct contact with cross-linker solutions of same epoxy equivalents, without polysaccharide; control culture medium in NaCl 0.9%
Method: MTT assay was used to evaluate the viability of 3T3 mouse fibroblasts grown.
c) MTT assay on cells grown in direct contact with the crosslinker
The MTT assay was performed on cells grown in direct contact with a solution containing cross-linker solutions. The solution contains the same epoxy equivalents, following the same steps of the manufacturing process of hydrogels—such as chemical reaction, washing and sterilization, but without the addition of the polysaccharide.

## C(CCOCC1CO1)COCC1CO1 (stereo not shown) [BDDE, 1,4-butane diol diglycidyl ether]
  cell viability (MTT): significant decrease of cells viability and signs of suffering
